The text below walks through data of paper PMC11357992, “Non-invasive mapping of systemic neutrophil dynamics upon cardiovascular injury” (Nature Cardiovascular Research, 2023).

Values joined by “and” are separate entries in the source; they are usually repeats but may differ in a detail not shown here. Identical values can stand only once. Where no end group is shown, it is not given here. Side-chain parts run from the residue outwards. rhodamine‑labelled PEGylated perfluoro‑15‑crown‑5 ether nanoemulsion = not defined here; carboxyfluorescein = N-terminal fluorescence label (CF)

Assay [1] deals with human neutrophils. Description: Migration of human neutrophils toward IL-8 (Boyden chamber). It is filed as cell-based. The settings on record: 50 µl hNPPFCs, 1 h, 37 °C; 100 ng ml^−1 IL-8. The protocol: A total of 1 × 10^6 isolated human neutrophils were incubated with or without 50 µl ^hNPPFCs for 1 h at 37 °C in 1 ml DMEM. After washing with DMEM, 1 × 10^5 of these cells were placed in a Boyden chamber containing 200 µl DMEM. The lower part of the chamber contained 100 ng ml^−1 IL-8 in 1 ml DMEM. After 1 h in an incubator, the flow through was collected, and the number of neutrophils was counted by flow cytometry. Murine neutrophils were isolated from Matrigel–LPS plugs and stained for Ly6G. Afterward, cells were washed twice, and the number of neutrophils was determined by flow cytometry.

In assay [2] the test system is murine blood leukocytes. Description: Ex vivo uptake of mNPPFCs/ConPFCs by murine immune cells, flow cytometry. Type of assay: cell-based, mouse. More on the design: Basal mNPPFC Uptake, flow cytometry / Stimulated mNPPFC Uptake, flow cytometry: unit not given here. The settings on record: for Stimulated mNPPFC Uptake, flow cytometry: LPS-stimulated conditions; for Stimulated mNPPFC Uptake, flow cytometry / Basal mNPPFC Uptake, flow cytometry: individual experiments; for Basal mNPPFC Uptake, flow cytometry: basal conditions. The protocol:
Erythrocytes were lysed by adding a fourfold volume of NH4Cl buffer (pH 7.4). After 10 min of incubation, samples were centrifuged at 350g for 10 min at 20 °C. For isolation of neutrophils from the bone marrow, mice were killed by cervical dislocation, and bones were dissected. Afterward, cells were isolated from the bone marrow using established protocols.
Flow cytometry was performed with a FACSCanto II (BD Biosciences) or LSRFortessa (BD Biosciences). Cells were gated with appropriate FSC–SSC settings and thresholds for excluding debris. To omit dead cells, samples were stained with 1 µg ml^−1 DAPI (Merck). For analysis, cells were gated with FACSDiva 6 or FlowJo 7.1, and MFI and/or the number of positive cells was determined, depending on the experiment.
Human immune cells were discriminated by staining for CD45 (BioLegend, clone HI30), CD11b (BD Biosciences, clone ICRF44), CD14 (BioLegend, clone M5E2) and CD16 (BD Biosciences, clone 3G8) (lymphocytes, CD45^+CD11b^−CD16^−; classical monocytes, CD45^+CD11b^+CD14^++CD16^−; non-classical monocytes, CD45^+CD11b^+CD14^+CD16^++; neutrophils, CD45^+CD11b^+CD16^+). Murine immune cells were discriminated by staining for CD45 (BD Biosciences, clone 30-F11), CD11b (BioLegend, clone M1/70), Ly6G (BD Biosciences, clone 1A8), Ly6C (BioLegend, clone HK1.4) and F4/80 (BioLegend, clone BM8) (lymphocytes, CD45^+CD11b^−Ly6G^−; classical monocytes, CD45^+CD11b^+Ly6G^−Ly6C^hi; non-classical monocytes, CD45^+CD11b^+Ly6G^−Ly6C^lo; neutrophils, CD45^+CD11b^+Ly6G^+; eosinophils, CD45^+CD11b^+Ly6G^+SSC^hiFSC^lo). Both human and murine cells were stained for 20 min at 4 °C, followed by washing with 200 µl MACS buffer.
If not mentioned otherwise, neutrophil-specific peptide or Con (both at 1 µg ml^−1) were incubated for 20 min at 4 °C, while ^NPPFCs or ^ConPFCs were incubated at a concentration of 10 µl ml^−1 for the indicated period of time, followed by two washing steps with 200 µl MACS buffer.
A total of 1 × 10^6 cells were incubated with 10 µl of the emulsion over a period of 80 min at 37 °C. At distinct time points, 50 µl of the samples were transferred into 2 ml of ice-cold MACS buffer and analyzed for rhodamine fluorescence by flow cytometry.
Extended Data Fig. 2 Specific targeting of neutrophils by ^mNPPFCs. a, Flow cytometric analysis of murine blood leukocytes incubated with ^mNPPFCs over 80 min illustrating their predominant uptake by neutrophils (red) as compared to monocytes (blue) and lymphocytes (gray). b, To further validate specificity, binding of CD177 mAb as well as incorporation of ^mNPPFCs under basal and LPS-stimulated conditions were determined. Almost no binding/uptake into classical or non-classical monocytes as well as macrophages or eosinophils could be detected. […] Subsequently, cells were analyzed by ^1H/^19F MRI. Left: ^1H/^19F MRI of centrifugation tubes with neutrophils treated with ^mNPPFCs (lower panel) or ^ConPFCs (upper panel). The small neutrophil cell pellet is located at the bottom of the tube and can be identified by ^1H MRI (1st column) as slightly darker structure (arrows) compared to the bright phosphate buffer; corresponding ^19F MR images (2nd column) and superimposition of ^1H/^19F datasets (3rd column, with ^19F data color-coded in hot iron). Quantification of ^19F signals (4th column) clearly indicate substantial stronger ^19F uptake in ^mNPPFC-treated neutrophils (red) compared to cells incubated with ^ConPFCs (gray); a.u. = arbitrary units. Data are means ± SD of n = 4 (a), n = 6 (b), n = 6 (c) or n = 3-5 (d) independent experiments; * = […], ** = p < 0.01, *** = p < 0.001, verified by two-way ANOVA (a), one-way ANOVA (b) or two-sided students t-test (c, d). Source data

[3] abbreviates: ex vivo, murine blood, flow cytometry, panel A raw data, replicates #1-#3.

“hNPPFCs: PEGylated rhodamine-labeled perfluorocarbon nanoemulsion coupled with human neutrophil-specific peptide hNP (carboxyfluorescein-DLVTSKLQVGGGC; also: C-terminal Cys coupled via maleimide-PEG2000-DSPE to rhodamine-labelled perfluorocarbon nanoemulsion)”: the “migration of human neutrophils toward IL-8” value in assay [1] is “no evidence for any changes in their chemotactic properties”.

In the case of “mNPPFCs: PEGylated rhodamine-labeled perfluoro-15-crown-5 ether nanoemulsion (maleimide PFCs) coupled with murine neutrophil-specific peptide mNP (carboxyfluorescein-DFYKPMPNLRITGGGC([maleimide‑PEG2000‑DSPE-rhodamine‑labelled PEGylated perfluoro‑15‑crown‑5 ether nanoemulsion]); reading uncertain; also: printed as DFYKPMPNLRIT-GGG-C)”, the “Stimulated mNPPFC Uptake, flow cytometry” value in assay [2] (classical monocytes) was 968 and 1199 and 1888 and 792 and 1168 and 1582; in assay [2] (eosinophils) it was 391 and 367 and 596 and 415 and 376 and 503; in assay [2] (macrophages), 1176 and 1188 and 969 and 1223 and 1090 and 1085; in assay [2] (neutrophils), 17100 and 16383 and 15263 and 14366 and 16180 and 12939; in assay [2] (non classical monocytes) it was 277 and 303 and 242 and 252 and 281 and 240. The “Basal mNPPFC Uptake, flow cytometry” value in assay [2] (classical monocytes) was 1007 and 804 and 1494 and 1027 and 800 and 1292; in assay [2] (eosinophils), 880 and 341 and 789 and 755 and 384 and 656; in assay [2] (macrophages), 945 and 874 and 865 and 808 and 877 and 873; in assay [2] (neutrophils) it was 10186 and 7521 and 8652 and 6287 and 6135 and 7209; in assay [2] (non classical monocytes), 138 and 192 and 152 and 172 and 167. In assay [2] (setting [3]), the “uptake of PFCs, lymphocytes” value is 97.9 and 103 and 102. Further, the “uptake of PFCs, monocytes” value in assay [2] (setting [3]) is 212 and 348 and 265. Besides, the “uptake of PFCs, neutrophils” value in assay [2] (setting [3]) was 2972 and 1641 and 1658.
